Test results reported in patent US10752933B2, “Methods for the identification, characterization, and use of inhibitors of the fructose-asparagine utilization pathway” (priority 2015, dated 2020).
Entries after “also recorded” stand apart in the source; their conditions may differ.

Assays:
Format in all cases: cell-based, Salmonella enterica serovar Typhimurium
[1] = tested on: wild-type MA43 Salmonella; assay: Growth of Salmonella on Amadori products as sole carbon source; settings: NCE minimal medium, carbon source at 5 mM, 37° C.
Method: FIG. 2A to FIG. 2E are graphs showing growth of wild-type and fraB1::kan mutant Salmonella on Amadori products. Growth of wild-type MA43 and fraB1::kan mutant MA59 on F-Asn (FIG. 2A), F-Arg (FIG. 2B), F-Lys (FIG. 2C), asparagine, arginine, lysine, or glucose (FIG. 2D). Bacteria were grown overnight in Luria Bertani (LB) broth at 37° C. with shaking, centrifuged, resuspended in water, and subcultured 1:1000 into minimal “no carbon E” (NCE) medium (containing trace metals) and the indicated carbon source at 5 mM. The optical density at 600 nm was then read at time points during growth at 37° C. with shaking. Controls included NCE with no carbon source, and NCE with glucose that was not inoculated, as a sterility control (FIG. 2D). FIG. 2E is a graph showing complementation of a fraB1::kan mutation with plasmid pASD5006 encoding the fra island (ASD6000) or the vector control, pWSK29 (ASD6010). Each point represents the mean of three cultures with error bars indicating standard deviation. FIG. 2A to FIG. 2C: ● wild-type; ◯ fraB mutant; FIG. 2D: ● Glucose wild-type; ◯ Glucose fraB mutant; □ No carbon source; ● Sterility; ⋄ Asn wild-type; * Arg wild-type; × Lys wild type; FIG. 2E: ◯ Glucose fraB mutant+pASD5006; ● Glucose fraB mutant+vector; ▪ F-Asn fraB mutant+pASD5006; F-Asn fraB mutant+vector; y-axis: OD600; x-axis: time (hours).
Amadori products most often result from a spontaneous reaction between a carbonyl group (often of glucose, although numerous other compounds can also react) and an amino group of an amino acid in vivo, and are then referred to as non-enzymatic glycation products. Zhang et al., 8 J. Proteome. Res. 754 (2009); Tessier, 58 Pathol. Biol. 214 (2010). With F-Lys and fructose-arginine (F-Arg) this can happen with the free amino acid, or the side groups of the lysine and arginine residues of a protein. In contrast, fructose-asparagine (F-Asn) can only result from reaction of glucose with the alpha amino group of free asparagine or the N-terminal asparagine of a protein. […]

Δfra island (HMB205) = assay: Growth inhibition by F-Asn in M9 glucose medium, fra island mutant; settings: M9 minimal medium with glucose and F-Asn
Method: (§1) FIG. 25 reflects the determination of the IC50 and IC90 of F-Asn to a fraB mutant. Wild-type (strain 14028, ●), ΔfraB::kan (HMB206, □) or Δfra island (HMB205, ▴) were grown in M9 minimal medium containing 5 mM glucose and varying concentrations of F-Asn. The data points represent the optical density obtained after 15 hours of growth at 37° C.
(§2) Growth curves were performed using clear, flat-bottom, 96-well plates. Minimal media with the specified carbon source were prepared and overnight cultures were washed twice with sterile water. In each well, 198-μl aliquots of media were inoculated with 2 μl of washed overnight cultures. A Breathe-Easy membrane film (Diversified Biotech) was placed over each 96-well plate. Growth over 18 hr at 37° C. was measured using hourly OD600 measurements in a SpectraMax M5 (Molecular Devices) Microplate Reader and SoftMax Pro 6.1 software.
(§3) To determine if F-Asn was bacteriostatic or bactericidal to the fraB mutant, the 50% and 90% inhibitory concentration (IC50 and IC90) and the minimum bactericidal concentration (MBC) were characterized. The IC50 and IC90 were determined by adding increasing concentrations of F-Asn to M9 minimal medium containing glucose as the carbon source. Growth of the fraB mutant was then monitored in these media. […] To determine the MBC, a small aliquot of these same cultures was dilution-plated onto LB agar.

[2] = tested on: ΔfraB::kan (HMB206) fraB mutant; assay: Growth inhibition of fraB mutant by F-Asn in M9 glucose medium (IC50, IC90, MBC)
Method: as §1, §2, §3

[3] = tested on: wild-type MA43 Salmonella; assay: Growth with F-Asn under aerobic and anaerobic conditions with or without tetrathionate; settings: 5 mM F-Asn
Method: FIG. 4A to FIG. 4D show growth of Salmonella on F-Asn in the presence or absence of tetrathionate or oxygen. Growth of wild-type MA43 and fraB1::kan mutant MA59 on 5 mM F-Asn or 5 mM glucose anaerobically (FIG. 4A and FIG. 4B) or aerobically (FIG. 4C and FIG. 4D) in the presence (FIG. 4A and FIG. 4C) or absence (FIG. 4B and FIG. 4D) of 40 mM tetrathionate (S406 22). Bacteria were grown overnight in LB at 37° C. shaking, centrifuged, resuspended in water, and subcultured 1:1000 into NCE medium containing the indicated carbon source. The optical density at 600 nm was then read at time points during growth at 37° C. with shaking. Each point represents the mean of four cultures with error bars indicating standard deviation. ● F-Asn wild-type; ▪ F-Asn fraB mutant; ▴ Glucose wild-type; ▾ Glucose fraB mutant; x-axis: time (hours); y-axis: OD600.
Growth with F-Asn was tested under aerobic and anaerobic conditions in the presence or absence of the terminal electron acceptor tetrathionate (FIG. 4A to FIG. 4D). […] Competition experiments in which the wild-type and fraB1::kan mutant were grown in the same culture were performed in minimal medium containing F-Asn. As expected, the mutant was severely attenuated during aerobic and anaerobic growth, and in the presence or absence of tetrathionate (FIG. 5). Indeed, the attenuation was most severe during anaerobic growth in the presence of tetrathionate.

Wild-type (strain 14028) = assay: Growth inhibition by F-Asn in M9 glucose medium, wild-type; settings: M9 minimal medium with glucose and F-Asn
Method: as §1, §2, §3

Compound | growth on Amadori product as sole carbon source [1] | inhibitory to growth (Δfra island (HMB205)) | IC50 ([2]; Salmonella enterica, M9 minimal medium, 5 mM glucose, varying F-Asn, optical density after 15 hours at 37° C., 95% confidence interval 9 to 40 μM) [µM] | IC90 ([2]; Salmonella enterica, M9 minimal medium, 5 mM glucose, varying F-Asn, optical density after 15 hours at 37° C., 95% confidence interval 82 to 368 μM) [µM] | minimum bactericidal concentration (MBC) ([2]; aliquot of IC50 cultures dilution-plated onto LB agar, up to highest F-Asn concentrations tested) | bacteriostatic or bactericidal to the fraB mutant ([2]; in vitro, cultures dilution-plated onto LB agar) | Salmonella doubling time on F-Asn ([3]; aerobically with tetrathionate) [h] | Salmonella doubling time on F-Asn ([3]; aerobically without tetrathionate) [h] | Salmonella doubling time on F-Asn ([3]; anaerobically with tetrathionate) [h] | Salmonella doubling time on F-Asn ([3]; anaerobically without tetrathionate) [h] | inhibitory to growth (Wild-type (strain 14028))
NC(=O)C[C@@H](NCC1(O)OC[C@@H](O)[C@@H](O)[C@@H]1O)C(=O)O (stereo partly drawn) [F-Asn, (2R)-4-amino-4-oxo-2-[[(3S,4R,5R)-2,3,4,5-tetrahydroxyoxan-2-yl]methylamino]butanoic acid] | grew as well on F-Asn as on glucose | not | 19 | 174 | no MBC was revealed | bacteriostatic; also recorded: bacteriostatic, not bactericidal | 1.6 ± 0.1 | 2.0 ± 0.3 | 1.9 ± 0.1 | 2.9 ± 0.4 | not
fructose-arginine [F-Arg] | unable to grow | – | – | – | – | – | – | – | – | – | –
fructose-lysine [F-Lys] | grew slowly and with low yield | – | – | – | – | – | – | – | – | – | –
